Source: patent US20060159676A1, “Methods for modulating angiogenesis, lymphangiogenesis, and apoptosis with apelin compositions” (priority 2005, published 2006)

Tests used:
VEGF mRNA expression = conditions: apelin-soaked bead, frog embryo
Protocol: Beads were microsurgically implanted in an avascular region, the posterior lateral mesoderm, of stage 24-26 embryos. Embryos were cultured in 0.2× MMR until stage 35-37, at which time they were prepared for whole mount in situ hybridization analysis as described in Example 2. The embryonic vascular system was visualized using an antisense probe directed against transcripts encoding the Xenopus vascular marker, erg (Baltzinger et al., 1999, Dev. Dyn. 216:420-33).

[1] = tested on: mouse endothelial cells (bEnd3); experiment: bEnd3 endothelial cell proliferation (BrdU incorporation); format: cell-based; conditions: apelin 10 ng/ml or VEGF 50 ng/ml; 0.1 ng/ml to 1 μg/ml (FIG. 17)
Protocol: Similar cellular proliferation assays were performed using mouse endothelial cells (bEnd3) that constitutively express APJ. […] SU1498 was included in proliferation cultures at a 25 μM concentration, and results were assayed using BrdU incorporation.
Proliferation inhibition experiments with the bEnd3 cells also were carried out using FGF (50 ng/ml) or the FGF pathway inhibitor SU5402 (FIG. 19). SU5402 was included in proliferation cultures at a 20 μM concentration, and results were assayed using BrdU incorporation.

bEnd3 cells = conditions: apelin 10 ng/ml in bottom chamber; VEGF 50 ng/ml as comparison
Protocol: Cell migration assays were performed using the bEnd3 cells in Transwell cell culture migration chambers (FIG. 20). The cells were plated in serum free medium in the upper chamber of the migration chamber. […] The cells that migrated to the bottom chamber were visualized by DAPI stain of the nuclei of the cells (Panels A, B, and C).

[2] = tested on: BAE/APJ#2 cells (bovine aortic endothelial cells expressing mouse APJ); experiment: BAE/APJ#2 endothelial cell proliferation (BrdU incorporation); format: cell-based; conditions: 10 ng/ml, 24 hours, after 48 hours serum starvation
Protocol: SU1498 was included in proliferation cultures at a concentration of 10 ng/ml and results were assayed using BrdU incorporation. After growth factor incubation, BrdU was added to each well at a final concentration of 10 μM for 2 hours, cells were washed, and fixed for BrdU immunocytochemistry.
Cells were fixed in 100% ice cold methanol at 4° C. for 2 hours to overnight. Prior to staining, cells were air dried and rehydrated for 3 minutes with PBS buffer. DNA was denatured at 37° C. with 2 M HCl, and neutralized with 2 washes for 5 minutes in 0.1 M borate buffer (pH 8.5). […] FITC-labeled anti-BrdU antibody (5 μg/ml) in block was added for 1 hour at room temperature. Cells were counterstained with propidium iodide following several washes in PBS buffer. For each experiment, 4 random fields were photographed for determination of percentage BrdU labeling.

BAE/APJ#2 cells = conditions: 10 ng/ml in bottom chamber, 16 hours
Protocol: Bovine aortic endothelial cells (BAE) were cultured in DMEM supplemented with 10% fetal bovine serum (FBS) and penicillin/streptomycin. For generation of stable cell lines expressing APJ, the mouse APJ coding region was cloned into the pcDNA 3.1 vector downstream of the CMV promoter, in frame with a myc epitope at the C-terminal end of the protein, and upstream of the neomycin gene. Bovine aortic endothelial (BAE) cells were transfected with this construction using the Superfect transfection kit (Qiagen) and selected for resistance to G418 (600 μg/ml). Colonies were isolated and screened using RT-PCR for expression of mouse APJ and also by immunocytochemistry for expression of the myc epitope.
Cell migration assays were performed using Transwell cell culture migration chambers (Becton Dickinson) with 8 micron pore size. BAE/APJ#2 cells were plated in serum free conditions in 100 μl at a concentration of 1×10^5 ml in the upper chamber of the migration chamber. Following cell attachment to the membrane, 10 ng/ml of growth factor was added to the bottom chamber, in a total volume of 0.5 ml. […] Cells attached to the membrane in the lower chamber were stained with DAPI, and 3 random fields were counted for each experimental condition.

CAM blood vessels = experiment: Chick chorioallantoic membrane (CAM) assay; format: in vivo, chicken; conditions: 50 ng on filter disc, three days, vs PBS
Protocol: Chicken eggs were incubated at 37° C. in a humidified chamber. On day 10 of development, a small window was made in the outer shell of the egg, and the CAM was released from its attachment to the inner shell membrane. A larger window was then made in the egg to allow for addition of the filter paper containing growth factor. Filter discs (3 MM Whatman) of 7-8 mm diameter were pretreated with 10 μl of 0.1% cortisone acetate (Sigma) solution to avoid inflammation of the CAM. The filter discs were air dried prior to application of growth factors. […] After air-drying, the filter discs were placed on the CAM, and eggs were returned to the incubator for three days. Filter discs and the attached CAM were then excised, washed with PBS, trimmed to the size of the disc, and photographed for quantitative analysis (FIGS. 7A and 7B). The number of vessel branch points was determined using a blind protocol. The results are shown as the mean of three independent experiments ±s.e.m. (FIG. 7C).

With Apelin-13 the “VEGF expression in the vicinity of the bead” value (VEGF mRNA expression) was “no upregulation of VEGF expression”, the “cellular proliferation of endothelial cells” value [1] was “induces the cellular proliferation of endothelial cells” and the “endothelial cell migration (chemotaxis)” value (bEnd3 cells) was “acts as chemotactic agent for the endothelial cells to the same extent as VEGF”. For the same substance, the “endothelial cell proliferation (BrdU labeling)” value [2] was “promotes endothelial cell proliferation to a similar extent as VEGF”, the “endothelial cell migration (cells per field)” value (BAE/APJ#2 cells) was “promotes endothelial cell migration” and the blood vessel formation (CAM blood vessels) was “increased”. For the same substance, the “leakage of blood vessels” value (CAM blood vessels) was “increased”.
